PubChem BioAssay (NCI)
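These data come from cells grown in 96-well plates and exposed to compound for 48 hours at five concentrations. Definition used: TGI = concentration required for complete inhibition of growth.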

Legend:
Experiment in all cases: NCI tumour cell line growth inhibition, 48 h
[1] = tested on: HT29 colon
[2] = tested on: A498 renal
[3] = tested on: SK-MEL-5 melanoma
[4] = tested on: HOP-62 NSCLC
[5] = tested on: MOLT-4 leukemia
[6] = tested on: NCI-H522 lung
[7] = tested on: TK-10 renal
[8] = tested on: A549 NSCLC
[9] = tested on: SF-295 CNS
[10] = tested on: SNB-78 CNS
[11] = tested on: HL-60(TB) leukemia
[12] = tested on: SF-539 CNS
[13] = tested on: SK-OV-3 ovarian
[14] = tested on: DMS 273 small cell lung
[15] = tested on: XF 498 CNS
[16] = tested on: SF-268 CNS
[17] = tested on: OVCAR-5 ovarian
[18] = tested on: SW-620 colon
[19] = tested on: CCRF-CEM leukemia
[20] = tested on: DMS 114 small cell lung
[21] = tested on: LXFL 529 NSCLC
[22] = tested on: DLD-1 colon
[23] = tested on: ACHN renal
[24] = tested on: NCI-H226 lung
[25] = tested on: OVCAR-4 ovarian
[26] = tested on: KM20L2 colon
[27] = tested on: SR leukemia
[28] = tested on: LOX IMVI melanoma
[29] = tested on: RXF 393 renal
[30] = tested on: MALME-3M melanoma
[31] = tested on: M19-MEL melanoma
[32] = tested on: UACC-257 melanoma
[33] = tested on: RXF-631 renal
[34] = tested on: SN12C renal
[35] = tested on: KM12 colon
[36] = tested on: EKVX NSCLC
[37] = tested on: UACC-62 melanoma
[38] = tested on: U251 CNS
[39] = tested on: SNB-19 CNS
[40] = tested on: K-562 leukemia
[41] = tested on: HOP-92 NSCLC
[42] = tested on: COLO 205 colon
[43] = tested on: CAKI-1 renal
[44] = tested on: SK-MEL-2 melanoma
[45] = tested on: OVCAR-8 ovarian
[46] = tested on: NCI-H460 lung
[47] = tested on: UO-31 renal
[48] = tested on: 786-0 renal
[49] = tested on: NCI-H23 lung
[50] = tested on: HCT-15 colon
[51] = tested on: M14 melanoma
[52] = tested on: RPMI-8226 leukemia
[53] = tested on: SK-MEL-28 melanoma
[54] = tested on: HCT-116 colon
[55] = tested on: HOP-18 NSCLC

CN1CCC(O)C(CNC23CC4CC(CC(C4)C2)C3)C1 (stereo not drawn)
TGI [1]: > 100 µM | TGI [2]: > 100 µM | TGI [3]: > 100 µM | TGI [4]: > 100 µM | TGI [5]: > 100 µM | TGI [6]: > 100 µM | TGI [7]: > 100 µM | TGI [8]: > 100 µM | TGI [9]: > 100 µM | TGI [10]: > 100 µM | TGI [11]: > 100 µM | TGI [12]: > 100 µM | TGI [13]: > 100 µM | TGI [14]: > 100 µM | TGI [15]: > 100 µM | TGI [16]: > 100 µM | TGI [17]: > 100 µM | TGI [18]: > 100 µM | TGI [19]: > 100 µM | TGI [20]: > 100 µM | TGI [21]: > 100 µM | TGI [22]: > 100 µM | TGI [23]: > 100 µM | TGI [24]: > 100 µM | TGI [25]: > 100 µM | TGI [26]: > 100 µM | TGI [27]: > 100 µM | TGI [28]: > 100 µM | TGI [29]: > 100 µM | TGI [30]: > 100 µM | TGI [31]: > 100 µM | TGI [32]: > 100 µM | TGI [33]: > 100 µM | TGI [34]: > 100 µM | TGI [35]: > 100 µM | TGI [36]: > 100 µM | TGI [37]: > 100 µM | TGI [38]: > 100 µM | TGI [39]: > 100 µM | TGI [40]: > 100 µM | TGI [41]: > 100 µM | TGI [42]: > 100 µM | TGI [43]: > 100 µM | TGI [44]: > 100 µM | TGI [45]: > 100 µM | TGI [46]: > 100 µM | TGI [47]: > 100 µM | TGI [48]: > 100 µM | TGI [49]: > 100 µM

CCc1nc2ccccc2c(=O)n1/N=C(\N=Nc1ccc(Cl)cc1)c1ccc(N(C)C)cc1
TGI [2]: > 100 µM | TGI [3]: 64.6 µM | TGI [4]: 50 µM | TGI [5]: 92.2 µM | TGI [6]: 66.9 µM | TGI [7]: > 100 µM | TGI [8]: > 100 µM | TGI [11]: 51.6 µM | TGI [50]: > 100 µM | TGI [12]: > 100 µM | TGI [13]: 99.4 µM | TGI [14]: > 100 µM | TGI [15]: 80.7 µM | TGI [16]: > 100 µM | TGI [18]: > 100 µM | TGI [19]: > 100 µM | TGI [51]: > 100 µM | TGI [20]: 47 µM | TGI [21]: > 100 µM | TGI [22]: > 100 µM | TGI [52]: 80.7 µM | TGI [23]: > 100 µM | TGI [53]: > 100 µM | TGI [54]: 73.6 µM | TGI [26]: 69.9 µM | TGI [28]: > 100 µM | TGI [29]: > 100 µM | TGI [33]: > 100 µM | TGI [34]: > 100 µM | TGI [36]: > 100 µM | TGI [38]: > 100 µM | TGI [40]: 79.3 µM | TGI [41]: 59 µM | TGI [42]: 73.5 µM | TGI [45]: > 100 µM | TGI [46]: > 100 µM | TGI [47]: 60.1 µM | TGI [55]: > 100 µM | TGI [49]: 92.4 µM
